# According to patent US20230107642A1 (Erasca, Inc., priority 2020, published 2023):
# Molecular target: T1, Cys12 of the KRAS 4B G12C protein (Homo sapiens, UniProt P01116, G12C)
# T1 construct: This protein contained 188 amino acids in total, including an N-terminal 6-Histidine tag; made in house; host or cells: E. coli BL21
# Assay: In vitro covalent adduct formation (CAF) assay, LC-MS intact mass
# Format: binding
# Conditions: 10 uM compound, 60 min
# How it was run: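 Percent covalent modification from intact-mass LC-MS, by relative free versus adducted protein (adducts within 1 Da of expected mass). Reaction: 10 μM compound with 5 μM E. coli-expressed, GDP-exchanged KRAS 4B G12C in TBS pH 7.4, 4% DMSO, 1 h at 22° C.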
row,Compound,% CAF 10 uM @ 60 min
1,"C=CC(=O)N1CCN(c2nc(=O)n3c4c(c(-c5ccc(F)cc5)c(C(F)(F)F)cc24)SC[C@@H]3CN2CCN(CC)CC2)CC1 [Example 1378, (S)-7-(4-acryloylpiperazin-1-yl)-3-((4-ethylpiperazin-1-yl)methyl)-10-(4-fluorophenyl)-9-(trifluoromethyl)-2,3-dihydro-5H-[1,4]thiazino[2,3,4-ij]quinazolin-5-one]",78.9%
2,"C=CC(=O)N1C2CCC1CN(c1nc(=O)n3c4c(c(-c5cc(Cl)c(F)cc5F)c(C(F)(F)F)cc14)SCC1(COC1)C3)C2 [Example 1402, (S)-8′-((1R,5S)-8-acryloyl-3,8-diazabicyclo[3.2.1]octan-3-yl)-11′-(5-chloro-2,4-difluorophenyl)-10′-(trifluoromethyl)-2′H,4′H,6′H-spiro[oxetane-3,3′-[1,4]thiazepino[2,3,4-ij]quinazolin-6′-one]",6.8%
3,"C=CC(=O)N1CCN(c2nc(=O)n3c4c(c(-c5cc(Cl)c(F)cc5F)c(C(F)(F)F)cc24)SC[C@@H]3COCOC)CC1 (atropisomer, axis not shown) [Example 1364]",98%
4,"C=CC(=O)N1CCN(c2nc(=O)n3c4c(c(-c5cc(Cl)c(F)cc5F)c(C(F)(F)F)cc24)SC[C@@H]3CN2CCN(C3CC3)CC2)CC1 (atropisomer, axis not shown) [Example 1355, (3S,10R)-7-(4-acryloylpiperazin-1-yl)-10-(5-chloro-2,4-difluorophenyl)-3-((4-cyclopropylpiperazin-1-yl)methyl)-9-(trifluoromethyl)-2,3-dihydro-5H-[1,4]thiazino[2,3,4-ij]quinazolin-5-one]",99.2%
5,"[2H]C([2H])([2H])OC[C@H]1CSc2c(-c3ccc(F)cc3F)c(C(F)(F)F)cc3c(N4C[C@@H](C)N(C(=O)C=C)[C@@H](C)C4)nc(=O)n1c23 (atropisomer, axis not shown) [Example 1424, (3S,10S)-7-((3S,5R)-4-acryloyl-3,5-dimethylpiperazin-1-yl)-10-(2,4-difluorophenyl)-3-((methoxy-d3)methyl)-9-(trifluoromethyl)-2,3-dihydro-5H-[1,4]thiazino[2,3,4-ij]quinazolin-5-one]",95.4%
6,"C=CC(=O)N1[C@H](C)CN(c2nc(=O)n3c4c(c(-c5ccc(F)cc5F)c(C(F)(F)F)cc24)SC[C@@H]3CN2C[C@@H]3C[C@H]2CO3)C[C@@H]1C (atropisomer, axis not shown) [Example 1300, (3S,10S)-3-(((1S,4S)-2-oxa-5-azabicyclo[2.2.1]heptan-5-yl)methyl)-7-((3S,5R)-4-acryloyl-3,5-dimethylpiperazin-1-yl)-10-(2,4-difluorophenyl)-9-(trifluoromethyl)-2,3-dihydro-5H-[1,4]thiazino[2,3,4-ij]quinazolin-5-one]",90.8%
7,"C=CC(=O)N1C[C@H](C)N(c2nc(=O)n3c4c(c(-c5cc(Cl)c(F)cc5F)c(C(F)(F)F)cc24)SC[C@@H]3CN2CCN(C3CC3)CC2)C[C@H]1C [Example 1307, (3S)-7-((2S,5R)-4-acryloyl-2,5-dimethylpiperazin-1-yl)-10-(5-chloro-2,4-difluorophenyl)-3-((4-cyclopropylpiperazin-1-yl)methyl)-9-(trifluoromethyl)-2,3-dihydro-5H-[1,4]thiazino[2,3,4-ij]quinazolin-5-one]",69.7%
8,"(3S,10S)-7-((2S,5R)-4-acryloyl-2,5-dimethylpiperazin-1-yl)-10-(5-chloro-2,4-difluorophenyl)-3-((4-cyclopropylpiperazin-1-yl)methyl)-9-(trifluoromethyl)-2,3-dihydro-5H-[1,4]thiazino[2,3,4-ij]quinazolin-5-one [Example 1361]",29.8%
9,"C=CC(=O)N1[C@H](C)CN(c2nc(=O)n3c4c(c(-c5ccc(F)cc5F)c(C(F)(F)F)cc24)SC[C@@H]3COCC)C[C@@H]1C [Example 1414, (3S)-7-((3S,5R)-4-acryloyl-3,5-dimethylpiperazin-1-yl)-10-(2,4-difluorophenyl)-3-(ethoxymethyl)-9-(trifluoromethyl)-2,3-dihydro-5H-[1,4]thiazino[2,3,4-ij]quinazolin-5-one]",91.8%

# Other lines, results leading:
row,% CAF 10 uM @ 60 min,Compound
1,81.3%,"C=CC(=O)N1CCN(c2nc(=O)n3c4c(c(-c5ccc(F)cc5)c(C(F)(F)F)cc24)SC[C@@H]3CN2C[C@@H]3C[C@H]2CO3)CC1 [Example 1350, (S)-3-(((1S,4S)-2-oxa-5-azabicyclo[2.2.1]heptan-5-yl)methyl)-7-(4-acryloylpiperazin-1-yl)-10-(4-fluorophenyl)-9-(trifluoromethyl)-2,3-dihydro-5H-[1,4]thiazino[2,3,4-ij]quinazolin-5-one]"
2,85%,"C=CC(=O)N1[C@H](C)CN(c2nc(=O)n3c4c(c(-c5cc(Br)c(F)cc5F)c(C(F)(F)F)cc24)SC[C@@H]3COC)C[C@@H]1C [Example 1443, (3S)-7-((3S,5R)-4-acryloyl-3,5-dimethylpiperazin-1-yl)-10-(5-bromo-2,4-difluorophenyl)-3-(methoxymethyl)-9-(trifluoromethyl)-2,3-dihydro-5H-[1,4]thiazino[2,3,4-ij]quinazolin-5-one]"
3,76%,"C=CC(=O)N1C[C@H](C)N(c2nc(=O)n3c4c(c(-c5cc(C(OC)OC)c(F)cc5F)c(C(F)(F)F)cc24)SCC2(COC2)C3)C[C@H]1C [Example 1426, 8′-((2S,5R)-4-acryloyl-2,5-dimethylpiperazin-1-yl)-11′-(5-(dimethoxymethyl)-2,4-difluorophenyl)-10′-(trifluoromethyl)-2′H,4′H,6′H-spiro[oxetane-3,3′-[1,4]thiazepino[2,3,4-ij]quinazolin]-6′-one]"

# Same assay, conditions: 10 uM compound, 60 min incubation
row,Compound,% CAF 10 uM @ 60 min
1,"C=CC(=O)N1[C@H](C)CN(c2nc(=O)n3c4c(c(-c5cc(Cl)c(F)cc5F)c(C(F)(F)F)cc24)SC[C@H](N2CCOCC2)C3)C[C@@H]1C (atropisomer, axis not shown) [Example 1115, (3R,11S)-8-((3S,5R)-4-acryloyl-3,5-dimethylpiperazin-1-yl)-11-(5-chloro-2,4-difluorophenyl)-3-morpholino-10-(trifluoromethyl)-3,4-dihydro-2H,6H-[1,4]thiazepino [2,3,4-ij]quinazolin-6-one]",42.5%
2,"C=CC(=O)N1[C@H](C)CN(c2nc(=O)n3c4c(c(-c5cc(Cl)c(F)cc5F)c(C(F)(F)F)cc24)SC[C@@H](N2CCCC2)C3)C[C@@H]1C (atropisomer, axis not shown) [Example 1138, (3S,11S)-8-((3S,5R)-4-acryloyl-3,5-dimethylpiperazin-1-yl)-11-(5-chloro-2,4-difluorophenyl)-3-(pyrrolidin-1-yl)-10-(trifluoromethyl)-3,4-dihydro-2H,6H-[1,4]thiazepino [2,3,4-ij]quinazolin-6-one]",50.5%

# Now from value to compound:
row,% CAF 10 uM @ 60 min,Compound
1,0%,"C=CC(=O)N1C[C@H](C)N(c2nc(=O)n3c4c(c(-c5cccc6cnn(C)c56)c(C(F)(F)F)cc24)SC[C@@H]3COC)C[C@H]1C (atropisomer, axis not shown) [Example 1101, (3S,10R)-7-((2S,5R)-4-acryloyl-2,5-dimethylpiperazin-1-yl)-3-(methoxymethyl)-10-(1-methyl-1H-indazol-7-yl)-9-(trifluoromethyl)-2,3-dihydro-5H-[1,4]thiazino[2,3,4-ij]quinazolin-5-one]"
2,85%,"C=CC(=O)N1CCN(c2nc(=O)n3c4c(c(-c5cc(Cl)c(F)cc5F)c(C(F)(F)F)cc24)SC[C@@H]3COC)CC1 (atropisomer, axis not shown) [Example 1108, (3S,10S)-7-(4-acryloylpiperazin-1-yl)-10-(5-chloro-2,4-difluorophenyl)-3-(methoxymethyl)-9-(trifluoromethyl)-2,3-dihydro-5H-[1,4]thiazino[2,3,4-ij]quinazolin-5-one]"

# Same assay, conditions: 10 μM compound, after 1 hour
row,CAF (% after 1 hour),Compound
1,67%,"C=C(F)C(=O)N1[C@H](C)CN(c2nc(=O)n3c4c(c(-c5ccc(F)cc5F)c(C(F)(F)F)cc24)SC[C@@H](OC)C3)C[C@@H]1C [Example 1220, (3S)-11-(2,4-Difluorophenyl)-8-((3S,5R)-4-(2-fluoroacryloyl)-3,5-dimethylpiperazin-1-yl)-3-methoxy-10-(trifluoromethyl)-3,4-dihydro-2H,6H-[1,4]thiazepino[2,3,4-ij]quinazolin-6-one]"
2,96%,"C=CC(=O)N1C[C@H](C)N(c2nc(=O)n3c4c(c(-c5ccc(F)c(Cl)c5)c(C(F)(F)F)cc24)SC[C@@H](OC)C3)C[C@H]1C [Example 1201, (S)-8-((2S,5R)-4-acryloyl-2,5-dimethylpiperazin-1-yl)-11-(3-chloro-4-fluorophenyl)-3-methoxy-10-(trifluoromethyl)-3,4-dihydro-2H,6H-[1,4]thiazepino[2,3,4-ij]quinazolin-6-one]"
3,96%,"[2H]C([2H])([2H])O[C@@H]1CSc2c(-c3ccc(F)cc3)c(C(F)(F)F)cc3c(N4C[C@@H](C)N(C(=O)C=C)[C@@H](C)C4)nc(=O)n(c23)C1 [Example 1229, (S)-8-((3S,5R)-4-acryloyl-3,5-dimethylpiperazin-1-yl)-11-(4-fluorophenyl)-3-(methoxy-d3)-10-(trifluoromethyl)-3,4-dihydro-2H,6H-[1,4]thiazepino[2,3,4-ij]quinazolin-6-one]"

# Same assay, conditions: after 60 min
row,CAF (% binding after 60 min),Compound
1,95%,"C=CC(=O)N1[C@H](C)CN(c2nc(=O)n3c4c(c(-c5ccc(F)cc5F)c(C(F)(F)F)cc24)SC[C@@H](OCOC)C3)C[C@@H]1C [Example 1012, (3S)-8-((3S,5R)-4-acryloyl-3,5-dimethylpiperazin-1-yl)-11-(2,4-difluorophenyl)-3-(methoxymethoxy)-10-(trifluoromethyl)-3,4-dihydro-2H,6H-[1,4]thiazepino[2,3,4-ij]quinazolin-6-one]"
